Test results reported in US8148373B2, “Compounds” (AstraZeneca AB, priority 2008, dated 2012).
Structures can show the parent of a compound that is named as a salt.

Key:
[1] = biological target: T1, Adrenergic β2 (H292 cells) (Homo sapiens, UniProt P07550); experiment: Assay for Adrenergic β2 Mediated cAMP Production (concentration response, AlphaScreen cAMP detection); type: cell-based; details: for EC50: cAMP production, 60 minutes at room temperature, 300 μM rolipram, read-out: β2 pEC50 (converted); for β2 Intrinsic activity: fraction relative to the maximum activity determined for formoterol
T1 construct: endogenous in cells; host or cells: H292 cells
T1 sequence (P07550 whole entry): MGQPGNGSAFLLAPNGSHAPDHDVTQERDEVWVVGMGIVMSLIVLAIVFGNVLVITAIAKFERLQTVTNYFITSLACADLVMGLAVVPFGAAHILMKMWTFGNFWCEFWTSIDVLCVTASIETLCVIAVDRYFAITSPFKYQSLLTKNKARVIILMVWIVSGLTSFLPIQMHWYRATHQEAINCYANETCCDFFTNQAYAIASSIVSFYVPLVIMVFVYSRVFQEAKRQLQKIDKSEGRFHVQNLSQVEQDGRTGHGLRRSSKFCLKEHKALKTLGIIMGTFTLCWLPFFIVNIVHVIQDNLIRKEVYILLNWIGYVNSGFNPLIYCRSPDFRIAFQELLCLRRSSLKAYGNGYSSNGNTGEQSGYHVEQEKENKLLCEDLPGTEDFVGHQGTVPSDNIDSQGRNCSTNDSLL
Experimental: Assay for Adrenergic β2 Mediated Camp Production
H292 cells are grown in 225 cm2 flasks incubator at 37° C., 5% CO2 in RPMI medium containing 10% (v/v) FBS (foetal bovine serum) and 2 mM L-glutamine.
Adherent H292 cells are removed from tissue culture flasks by treatment with Accutase™ cell detachment solution for 15 minutes. Flasks are incubated for 15 minutes in a humidified incubator at 37° C., 5% CO2. Detached cells are re-suspended in RPMI media (containing 10% (v/v) FBS and 2 mM L-glutamine) at 0.1×10^6 cells per mL. 10000 cells in 100 μL are added to each well of a tissue-culture-treated 96-well plate and the cells incubated overnight in a humidified incubator at 37° C., 5% CO2. The culture media is removed and cells are washed twice with 100 μL assay buffer and replaced with 50 μL assay buffer (HBSS solution containing 10 mM HEPES pH7.4 and 5 mM glucose). Cells are rested at room temperature for 20 minutes after which time 25 μL of rolipram (1.2 mM made up in assay buffer containing 2.4% (v/v) dimethylsulphoxide) is added. Cells are incubated with rolipram for 10 minutes after which time test compounds are added and the cells are incubated for 60 minutes at room temperature. The final rolipram concentration in the assay is 300 μM and final vehicle concentration is 1% (v/v) dimethylsulphoxide. The reaction is stopped by removing supernatants, washing once with 100 μL assay buffer and replacing with 50 μL lysis buffer. The cell monolayer is frozen at −80° C. for 30 minutes (or overnight).
AlphaScreen™ cAMP Detection
The concentration of cAMP (cyclic adenosine monophosphate) in the cell lysate is determined using AlphaScreen™ methodology. The frozen cell plate is thawed for 20 minutes on a plate shaker then 10 μL of the cell lysate is transferred to a 96-well white plate. 40 μL of mixed AlphaScreen™ detection beads pre-incubated with biotinylated cAMP, is added to each well and the plate incubated at room temperature for 3 hours in the dark. The AlphaScreen™ signal is measured using an EnVision spectrophotometer (Perkin-Elmer Inc.) with the recommended manufacturer's settings. cAMP concentrations are determined by reference to a calibration curve determined in the same experiment using standard cAMP concentrations. Concentration response curves for agonists are constructed and data is fitted to a four parameter logistic equation to determine both the pEC50 and Intrinsic Activity. Intrinsic Activity is expressed as a fraction relative to the maximum activity determined for formoterol in each experiment.

[2] = biological target: T2, human muscarinic acetylcholine M3 receptor (M3-ACh) (Homo sapiens, UniProt P20309); experiment: Muscarinic 3 Receptor Binding Assay ([3H]NMS competition, SPA); details: [3H]NMS 0.1 nM, CHO-K1 cell membranes, 16 hours at room temperature; read-out: M3 pIC50 (converted)
T2 construct: expressed in transfected cells; host or cells: CHO-K1 (Chinese Hamster Ovary) cell membranes
T2 sequence (P20309 whole entry): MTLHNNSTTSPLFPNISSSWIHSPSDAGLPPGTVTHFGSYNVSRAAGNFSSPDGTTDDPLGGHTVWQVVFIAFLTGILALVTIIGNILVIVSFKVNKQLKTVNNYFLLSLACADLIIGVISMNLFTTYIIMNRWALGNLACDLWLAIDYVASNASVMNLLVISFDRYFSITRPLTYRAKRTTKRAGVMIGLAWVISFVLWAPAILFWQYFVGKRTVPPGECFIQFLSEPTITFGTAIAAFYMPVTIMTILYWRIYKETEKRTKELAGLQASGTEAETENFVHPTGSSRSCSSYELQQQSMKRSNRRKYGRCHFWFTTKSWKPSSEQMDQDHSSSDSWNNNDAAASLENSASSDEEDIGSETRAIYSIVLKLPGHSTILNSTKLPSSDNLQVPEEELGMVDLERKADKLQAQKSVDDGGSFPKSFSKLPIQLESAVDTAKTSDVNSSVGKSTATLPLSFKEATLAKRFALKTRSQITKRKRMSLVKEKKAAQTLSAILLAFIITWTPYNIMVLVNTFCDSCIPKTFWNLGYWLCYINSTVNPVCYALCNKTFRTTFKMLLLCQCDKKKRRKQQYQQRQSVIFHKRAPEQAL
Experimental: Muscarinic 3 Receptor Binding Assay
The affinity (pIC50) of compounds binding to the M3 receptor is determined by competition binding of [^3H]N-methyl scopolamine (NMS) to CHO-K1 (Chinese Hamster Ovary) cell membranes expressing the human muscarinic acetylcholine M3 receptor (M3-ACh) in a scintillation proximity assay (SPA) format.
SPA beads are precoated with membranes and then incubated at 2 mg of beads per well with serial dilutions of compounds of the invention, [^3H]NMS at 0.1 nM, quarter Kd (experimentally determined dissociation constant) and assay buffer (20 mM HEPES pH 7.4 containing 5 mM MgCl2). The assay is conducted in a final volume of 200 μL, in the presence of 1% (v/v) dimethyl sulphoxide (DMSO). Total binding of [^3H]NMS is determined in the absence of competing compound and non-specific binding of [^3H]NMS is determined in the presence of 1 μM atropine. The plates are incubated for 16 hours at room temperature and then read on Wallac Microbeta™ using a normalised ^3H protocol. The pIC50, defined as the negative logarithm of the molar concentration of compound required for 50% reduction in specific [^3H]-NMS binding, is determined.

| EC50 [1] [nM] | β2 Intrinsic activity [1] | IC50 [2] [nM] | SMILES |
| --- | --- | --- | --- |
| 1.58 | 0.8 | 0.1 | Cc1nc(C(=O)N2CCOC3(CCN(Cc4cccc(CCNCC(O)c5ccc(O)c6c5OCC(=O)N6)c4)CC3)C2)cs1 (single isomer, unassigned; isomer 1) [Example 11, 5-Hydroxy-8-(1-hydroxy-2-(3-((4-(2-methylthiazole-4-carbonyl)-1-oxa-4,9-diazaspiro[5.5]undecan-9-yl)methyl)phenethylamino)ethyl)-2H-benzo[b][1,4]oxazin-3(4H)-one ditrifluoroacetate, Isomer 1] |
| 39.8 | 0.8 | 0.0794 | Cc1nc(C(=O)N2CCOC3(CCN(Cc4cccc(CCNCC(O)c5ccc(O)c6c5OCC(=O)N6)c4)CC3)C2)cs1 (single isomer, unassigned; isomer 2) [Example 13, 5-Hydroxy-8-(1-hydroxy-2-(3-((4-(2-methylthiazole-4-carbonyl)-1-oxa-4,9-diazaspiro[5.5]undecan-9-yl)methyl)phenethylamino)ethyl)-2H-benzo[b][1,4]oxazin-3(4H)-one ditrifluoroacetate, Isomer 2] |
| 3.98 | 0.9 | 0.316 | Cc1nc(C(=O)N2CCOC3(CCN(Cc4cccc(CCNC[C@H](O)c5ccc(O)c6[nH]c(=O)sc56)c4)CC3)C2)cs1 [Example 6, (R)-4-Hydroxy-7-(1-hydroxy-2-(3-((4-(2-methylthiazole-4-carbonyl)-1-oxa-4,9-diazaspiro[5.5]undecan-9-yl)methyl)phenethylamino)ethyl)benzo[d]thiazol-2(3H)-one ditrifluoroacetate] |
| 6.31 | 0.8 | 0.501 | Cc1nc(C(=O)N2CCOC3(CCN(Cc4cccc(CCNC[C@H](O)c5ccc(O)c6[nH]c(=O)ccc56)c4)CC3)C2)cs1 [Example 7, (R)-8-Hydroxy-5-(1-hydroxy-2-(3-((4-(2-methylthiazole-4-carbonyl)-1-oxa-4,9-diazaspiro[5.5]undecan-9-yl)methyl)phenethylamino)ethyl)quinolin-2(1H)-one ditrifluoroacetate] |
| 5.01 | 0.9 | 2 | Cc1ccc(C(=O)N2CCOC3(CCN(Cc4cccc(CCNC[C@H](O)c5ccc(O)c6[nH]c(=O)ccc56)c4)CC3)C2)s1 [Example 9, (R)-8-Hydroxy-5-(1-hydroxy-2-(3-((4-(5-methylthiophene-2-carbonyl)-1-oxa-4,9-diazaspiro[5.5]undecan-9-yl)methyl)phenethylamino)ethyl)quinolin-2(1H)-one ditrifluoracetate] |
| 5.01 | 0.9 | 6.31 | Cc1nc(C(=O)N2CCOC3(CCN(Cc4ccc(CCNC[C@H](O)c5ccc(O)c6[nH]c(=O)ccc56)s4)CC3)C2)cs1 [Example 14, (R)-8-Hydroxy-5-(1-hydroxy-2-(2-(5-((4-(2-methylthiazole-4-carbonyl)-1-oxa-4,9-diazaspiro[5.5]undecan-9-yl)methyl)thiophen-2-yl)ethylamino)ethyl)quinolin-2(1H)-one ditrifluoroacetate] |

More lines, now with the values behind:

| SMILES | EC50 [1] [nM] | β2 Intrinsic activity [1] | IC50 [2] [nM] |
| --- | --- | --- | --- |
| Cc1nc(C(=O)N2CCOC3(CCN(CCOc4ccc(CNC[C@H](O)c5ccc(O)c6[nH]c(=O)sc56)cc4)CC3)C2)cs1 [Example 1, (R)-4-Hydroxy-7-(1-hydroxy-2-(4-(2-(4-(2-methylthiazole-4-carbonyl)-1-oxa-4,9-diazaspiro[5.5]undecan-9-yl)ethoxy)benzylamino)ethyl)benzo[d]thiazol-2(3H)-one ditrifluoroacetate] | 63.1 | 0.8 | 3.16 |
| Cc1nc(C(=O)N2CCOC3(CCN(CCCCCCCCCNC[C@H](O)c4ccc(O)c5[nH]c(=O)sc45)CC3)C2)cs1 [Example 2, (R)-4-Hydroxy-7-(1-hydroxy-2-(9-(4-(2-methylthiazole-4-carbonyl)-1-oxa-4,9-diazaspiro[5.5]undecan-9-yl)nonylamino)ethyl)benzo[d]thiazol-2(3H)-one ditrifluoroacetate] | 12.6 | 0.8 | 0.316 |
| Cc1nc(C(=O)N2CCOC3(CCN(CCOc4ccc(CCNC[C@H](O)c5ccc(O)c6[nH]c(=O)sc56)cc4)CC3)C2)cs1 [Example 3, (R)-4-Hydroxy-7-(1-hydroxy-2-(4-(2-(4-(2-methylthiazole-4-carbonyl)-1-oxa-4,9-diazaspiro[5.5]undecan-9-yl)ethoxy)phenethylamino)ethyl)benzo[d]thiazol-2(3H)-one dihydrochloride] | 7.94 | 1.0 | 1 |
| Cc1nc(C(=O)N2CCOC3(CCN(CCc4ccc(CCNC[C@H](O)c5ccc(O)c6[nH]c(=O)sc56)s4)CC3)C2)cs1 [Example 4, (R)-4-Hydroxy-7-(1-hydroxy-2-(2-(5-(2-(4-(2-methylthiazole-4-carbonyl)-1-oxa-4,9-diazaspiro[5.5]undecan-9-yl)ethyl)thiophen-2-yl)ethylamino)ethyl)benzo[d]thiazol-2(3H)-one ditrifluoroacetate] | 15.8 | 0.9 | 1.26 |
| Cc1nc(C(=O)N2CCOC3(CCN(CCc4ccc(CCNC[C@H](O)c5ccc(O)c6[nH]c(=O)sc56)cc4)CC3)C2)cs1 [Example 5, (R)-4-Hydroxy-7-(1-hydroxy-2-(4-(2-(4-(2-methylthiazole-4-carbonyl)-1-oxa-4,9-diazaspiro[5.5]undecan-9-yl)ethyl)phenethylamino)ethyl)benzo[d]thiazol-2(3H)-one ditrifluoroacetate] | 79.4 | 0.9 | 2.51 |
| Cc1nc(C(=O)N2CCOC3(CCN(CCCOc4ccc(CNC[C@H](O)c5ccc(O)c6[nH]c(=O)sc56)cc4)CC3)C2)cs1 [Example 8, (R)-4-Hydroxy-7-(1-hydroxy-2-(4-(3-(4-(2-methylthiazole-4-carbonyl)-1-oxa-4,9-diazaspiro[5.5]undecan-9-yl)propoxy)benzylamino)ethyl)benzo[d]thiazol-2(3H)-one ditrifluoroacetate] | 39.8 | 1.0 | 3.98 |
| Cc1nc(C(=O)N2CCOC3(CCN(CCOc4cccc(CNC[C@H](O)c5ccc(O)c6[nH]c(=O)sc56)c4)CC3)C2)cs1 [Example 10, (R)-4-Hydroxy-7-(1-hydroxy-2-(3-(2-(4-(2-methylthiazole-4-carbonyl)-1-oxa-4,9-diazaspiro[5.5]undecan-9-yl)ethoxy)benzylamino)ethyl)benzo[d]thiazol-2(3H)-one ditrifluoroacetate] | 316 | 0.9 | 5.01 |
| CCc1ccc(C(=O)N2CCOC3(CCN(Cc4cccc(CCNC[C@H](O)c5ccc(O)c6[nH]c(=O)ccc56)c4)CC3)C2)s1 [Example 12, (R)-5-(2-(3-((4-(5-Ethylthiophene-2-carbonyl)-1-oxa-4,9-diazaspiro[5.5]undecan-9-yl)methyl)phenethylamino)-1-hydroxyethyl)-8-hydroxyquinolin-2(1H)-one ditrifluoroacetate] | 10 | 1 | 1 |
